Read-outs that look alike come from different tables or passages of the source.
Biological target: T1, FGFR3 (Homo sapiens, UniProt P22607)
T1 construct: FGFR3's cytoplasmic domain [436-806 (terminal) amino acids]; purchased Carna 08-135
Experiment: FGFR3 kinase activity inhibition assay (LanthaScreen TR-FRET)
Assay type: biochemical
Experimental: PV3552) and 10 mM EDTA were added to quench the kinase reaction, and incubated at 22°C for 60 minutes. • ⑤ The reaction was measured using a PerkinElmer EnVision multimode plate reader through TR-FRET dual wavelength detection. • 1. The RFU values were copied from the Envision program. • 2. The ratio of RFU 520nm/RFU 495nm was calculated. • 3. The value of the ratio was converted to a percentage inhibition value. % Inhibition = (max-data)/(max-min) × 100 [formula] "Min" represents the ratio of the control without enzyme, "max" represents the ratio of the DMSO control, and "data" represents the ratio of the compounds in wells with different concentrations. […] "Top" refers to the maximum response, "Bottom" refers to the minimum response, and "HillSlope" refers to the slope of the curve. According to the same method as that in the FGFR1 kinase activity inhibition assay, the inhibitory activities against FGFR2, FGFR3 and FGFR4 were tested using FGFR2's cytoplasmic domain [399-821 (terminal) amino acids] (Carna: 08-134), FGFR3's cytoplasmic domain [436-806 (terminal) amino acids] (Carna: 08-135) and FGFR4's cytoplasmic domain [460-802 (terminal) amino acids] (Carna: 08-136), respectively. […]

[1] = FGFR3 kinase, TR-FRET, read-out: IC50 (nM) FGFR3

T1 sequence (P22607 436-806): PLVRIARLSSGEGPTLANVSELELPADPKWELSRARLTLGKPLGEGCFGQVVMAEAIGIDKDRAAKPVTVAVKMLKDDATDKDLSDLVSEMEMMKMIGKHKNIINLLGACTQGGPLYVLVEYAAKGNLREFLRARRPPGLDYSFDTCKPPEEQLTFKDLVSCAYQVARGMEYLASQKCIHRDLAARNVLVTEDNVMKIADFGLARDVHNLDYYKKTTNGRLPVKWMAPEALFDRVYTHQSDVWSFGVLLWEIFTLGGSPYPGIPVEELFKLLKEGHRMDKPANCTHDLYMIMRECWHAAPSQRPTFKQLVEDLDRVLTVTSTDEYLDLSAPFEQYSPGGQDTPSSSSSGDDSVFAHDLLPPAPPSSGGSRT

| SMILES | IC50 [1] | IC50 |
| --- | --- | --- |
| Cc1c[nH]c(-c2n[nH]c3ccc(C(=O)NCC4CCNC4)cc23)n1 (stereo not shown) [Example 79, 3-(4-methyl-1H-imidazol-2-yl)-N-(pyrrolidin-3-ylmethyl)-1H-indazole-5-carboxamide] | > 100 nM |  |
| Cn1cc(-c2n[nH]c3ccc(C(=O)NCC4CNC4)cc23)cn1 [Example 68, N-(azetidin-3-ylmethyl)-3-(1-methyl-1H-pyrazol-4-yl)-1H-indazole-5-carboxamide] | > 100 nM |  |
| Cc1ccc2ncccc2c1C(CO)Oc1ccc2[nH]nc(-c3cnn(C)c3)c2c1 (stereo not shown) [Example 114, 2-((3-(1-methyl-1H-pyrazol-4-yl)-1H-indazol-5-yl)oxy)-2-(6-methylquinolin-5-yl)ethan-1-ol] | > 100 nM |  |
| CC(Oc1ccc2[nH]nc(-c3cnn(C)c3)c2c1)c1ccnc2ncccc12 (stereo not shown) [Example 93, 4-(1-((3-(1-methyl-1H-pyrazol-4-yl)-1H-indazol-5-yl)oxy)ethyl)-1,8-naphthyridine] | 10 to 100 nM |  |
| CNCCNC(=O)c1cc2c(-c3cnn(C)c3)n[nH]c2cc1-c1cc(OC)cc(OC)c1 [Example 71, 6-(3,5-dimethoxyphenyl)-3-(1-methyl-1H-pyrazol-4-yl)-N-(2-(methylamino)ethyl) -1H-indazole-5-carboxamide] | > 100 nM |  |
| CC(Oc1ccc2[nH]nc(-c3cnn(C)c3)c2c1)c1cc(C2CC2)cc2ncccc12 (stereo not shown) [Example 164, 7-cyclopropyl-5-(1-((3-(1-methyl-1H-pyrazol-4-yl)-1H-indazol-5-yl)oxy)ethyl)qui noline] | 1 to 10 nM |  |
| CC(C)n1cc(-c2n[nH]c3ccc(O[C@H](C)c4c(Cl)cncc4Cl)nc23)cn1 [Example 47, (R)-5-(1-(3,5-dichloropyridin-4-yl)ethoxy)-3-(1-isopropyl-1H-pyrazol-4-yl)-1H-pyrazolo[4,3-b]pyridine] | 10 to 100 nM |  |
| Cn1cc(-c2n[nH]c3ccc(C(=O)NCC4CCCNC4)cc23)cn1 (stereo not shown) [Example 69, 3-(1-methyl-1H-pyrazol-4-yl)-N-(piperidin-3-ylmethyl)-1H-indazole-5-carboxamide] | > 100 nM |  |
| CC(Oc1ccc2[nH]nc(-c3cnn(C4CCS(=N)(=O)CC4)c3)c2c1)c1cccc2nccnc12 (stereo not shown) [Example 154, 1-imino-4-(4-(5-(1-(quinoxalin-5-yl)ethoxy)-1H-indazol-3-yl)-1H-pyrazol-1-yl)hexahydro-thiopyran 1-oxide] | 1 to 10 nM |  |
| CC(Oc1ccc2[nH]nc(-c3cnn(C)c3)c2c1)c1csc2ncccc12 (stereo not shown) [Example 125, 3-(1-((3-(1-methyl-1H-pyrazol-4-yl)-1H-indazol-5-yl)oxy)ethyl)thi eno[2,3-b]pyridine] | 10 to 100 nM |  |
| C[C@@H](Oc1ccc2[nH]nc(-c3cnn4c3CCCC4)c2n1)c1c(Cl)cncc1Cl [Example 44, (R)-5-(1-(3,5-dichloropyridin-4-yl)ethoxy)-3-(4,5,6,7-tetrahydropyrazolo[1,5-a]pyridin-3-yl)-1H-pyrazolo[4,3-b]pyridine] | > 100 nM |  |
| Cc1c[nH]c(-c2n[nH]c3ccc(C(=O)NCc4ncc[nH]4)cc23)n1 [Example 81] | > 100 nM |  |
| CC(Oc1ccc2[nH]nc(-c3cnn(C)c3)c2c1)c1cccc2ncn(C)c12 (stereo not shown) [Example 103, 5-(1-(1-methyl-1H-benzo[d]imidazol-7-yl)ethoxy)-3-(1-methyl-1-H-pyrazol-4-yl)-1H-indazole] | 1 to 10 nM |  |
| CNCCNC(=O)c1ccc2[nH]nc(-c3nc4cc(N5CCN(C)CC5)ccc4[nH]3)c2c1 [Example 84, N-(2-(methylamino)ethyl)-3-(5-(4-methylpiperazin-1-yl)-1H-benzo[d]imidazol-2-yl)-1H-indazole-5-carboxamide] | > 100 nM |  |
| C#Cc1ccc2ncccc2c1C(C)Oc1ccc2[nH]nc(-c3cnn(C)c3)c2c1 (stereo not shown) [Example 166, 6-ethynyl-5-(1-((3-(1-methyl-lH-pyrazol-4-yl)-1H-indazol-5-yl)oxy)ethyl)quinoline] |  | 10 to 100 nM |
| CC(Oc1ccc2[nH]nc(-c3cnn(C)c3)c2c1)c1c(Cl)ccc2ncccc12 (stereo not shown) [Example 167, 6-chloro-5-(1-((3-(1-methyl-1H-pyrazol-4-yl)-1H-indazol-5-yl)oxy)ethyl)qu inoline] | 10 to 100 nM |  |
